Results published in US20150250786A1, “PYRIMIDINE HYDROXY AMIDE COMPOUNDS AS PROTEIN DEACETYLASE INHIBITORS AND METHODS OF USE THEREOF” (THE TRUSTEES OF THE UNIVERSITY OF PENNSYLVANIA, priority 2012, published 2015).
“And” between values parts separate entries of the source, which are not always exact repeats. Equal entries are not always repeated. Where two headings read alike, the source gives them in different places.

What was measured:
[1] = system: histone H3 lysine 9 acetylation; test: Histone H3K9 acetylation in vivo (Western blot, ChIP); design: species or system mouse
[2] = system: RN46A-B14 serotonergic cell line; test: α-tubulin K40 acetylation in RN46A-B14 cells (Western blot); format: cell-based, rat; settings: 4 hours; TSA 0.6 μM, others 2.5 μM
Procedure: In FIG. 3, it was observed that subchronic treatment, consisting of 5 treatments at 48, 28, 24, 4 and ½ hours before sacrifice, led to greater increase in tubulin acetylation than did chronic treatment of 1 injection/day for 21 days. For cell culture, RN46B cells were treated for with 0.25, 2.5 or 25 μM drug in DMSO for 1, 4 or 24 hours as indicated. Tukey post-hoc analysis: * P=0.01 to 0.05, ** P=0.001-0.01, ***P<0.001 when compared with vehicle treatment.
(§1) Results are shown as percent change normalized to the vehicle treatment condition. The horizontal hard line depicts average and the dotted lines depict SEM of the vehicle treated wells. Representative Western blot images are presented. […] Representative Western blot images are presented. […] The drugs (5 mg/kg) were administered subchronically (at 24 h, 4 h and 30 min prior to sacrifice) to HDAC6 KO and WT littermates. The changes in tubulin acetylation were measured in tissue lysates from cortex (ctx), hippocampus (Hpc), dorsal Raphe nucleus (DRN) and cerebellum (cb). The tubulin acetylation levels in drug-treated mice are expressed as percent change of the vehicle-treated mice of the corresponding genotype. The horizontal lines depict the average tubulin acetylation±SEM in the vehicle treated mice. The representative Western blot images show the changes induced by each drug treatment in the hippocampus (left column) and dorsal raphe (right column) of WT and HDAC6 KO mice.
In contrast to the class I isoforms HDAC2 and 3, which are expressed highly and ubiquitously in the mouse brain, HDAC6 mRNA expression appears to be restricted to a small number of brain areas, with highest signal observed in DRN (FIG. 13f). […] No changes in total α-tubulin expression were detected (FIG. 14a).

[3] = system: mice; test: Marble-burying task; format: in vivo, mouse; settings: acute administration
[4] = system: α-tubulin K40 acetylation in cortex, hippocampus, DRN, cerebellum; test: α-tubulin acetylation in brain regions after subchronic administration, WT and HDAC6 KO mice; format: in vivo, mouse
Procedure: as §1, with “The drugs (5 mg/kg) were administered subchronically (at 24 h, 4 h and 30 min prior to sacrifice) to HDAC6 KO and WT littermates.” left out

[5] = system: mice; test: NIH test; format: in vivo, mouse; settings: acute, 50 mg/kg
[6] = system: α-tubulin acetylation in mouse whole brain lysates; test: α-tubulin acetylation in whole brain lysates after single i.p. administration; format: in vivo; settings: compound 73 5 mg/kg, compound 101 50 mg/kg, tubastatin A 10 mg/kg, 30 min, 1 h, 4 h
[7] = Body weight gain during chronic treatment; format: in vivo, mouse; settings: 4 weeks of treatment
[8] = system: mice; test: Open-field test; format: in vivo, mouse
[9] = Pharmacokinetics and brain bio-distribution in mice; format: in vivo, mouse; settings: mouse; for Kp: brain, calculated over 2 hours
Procedure: […] Plasma samples were taken from all mice upon sacrifice. Brain samples were taken from the mice sacrificed at 5 and 15 minutes and 1 and 4 hours. The brain samples were homogenized in PBS and centrifuged at 14000 rpm for 5 minutes. The supernatant from the brain homogenate and the plasma samples were injected onto a LC/MS/MS for analysis. The compound level in the samples was determined by a standard curve in the appropriate matrix. Pharmacokinetic parameters were determined from the raw data by WinNonLin.

[10] = system: mice; test: Chronic social defeat (CSD) and social interaction test; format: in vivo, mouse; settings: compound 73 5 mg/kg
Procedure: Additionally, when combined with a dose of Citalopram with lower activity, these compounds seemed to have an additive effect (See FIG. 10). The dose of Citalopram chosen for this experiment was based on literature stating 2 mg/kg should be subactive, but this dose was found still showing an effect. Mice then underwent chronic social defeat stress, in which the mice are exposed to an aggressive resident mouse for 5 minutes daily for 10 days and are then tested on the 11th day in the social interaction test. Mice treated with vehicle for 20 total days, beginning 10 days before the defeat, show reduced time spent in the interaction zone when a target mouse is present when compared with control mice. […] The percent of mice found to be resilient, defined as spending more time in the interaction zone than the lowest control (i.e. ˜52 s), is higher in HDAC6 inhibitor groups. All behavior testing done using NIH Swiss mice, age 6-10 weeks. Tukey post-hoc analysis: * P=0.01 to 0.05, ** P=0.001-0.01, ***P<0.001 compared with vehicle treated mice.
The effects were observed 30 minutes after acute 50 mg/kg i.p. injection, but not for the lower dose (5 mg/kg). Combination of subactive doses of the HDAC6 selective inhibitors (5 mg/kg) and citalopram (0.5 mg/kg) produced robust potentiation of anti-immobility activity (n=8-29 per condition). […] No difference was observed between HDAC6 WT and KO when treated with the vehicle (n=6-15 per condition). FIG. 16c is a timeline showing treatment period, social defeat and social interaction (SI) testing.
A pro-resilient phenotype in the mouse CSD paradigm after serotonin-selective KO of HDAC6 was previously reported (Espallergues et al, 2012). Whether a chronic pharmacological inhibition of HDAC6 can replicate that phenotype is studied. […] On day 21, 24 h after the last injection, the mice were tested in the social interaction test. […] Significant effects were also observed when data was evaluated in terms of proportion of mice reaching criterion for resiliency.

[11] = system: RN46A-B14 serotonergic cell line; test: Histone H3K9 acetylation in RN46A-B14 cells (Western blot); format: cell-based, rat; settings: 2.5 μM, 4 hours
[12] = system: NIH Swiss mice; C57BL/6J HDAC6 WT and KO mice; test: Tail suspension test (TST); format: in vivo, mouse; settings: for immobility in TST: NIH Swiss mice
[13] = system: mice; test: Elevated plus maze (EPM); format: in vivo, mouse; settings: acute administration

## O=C(NO)c1cnc(NC2(c3ccccc3)CC2)nc1 [Compound 73, N-hydroxy-2-((1-phenylcyclopropyl)amino)pyrimidine-5-carboxamide]
[1]; hippocampus, repeated i.p., compound 73 5 mg/kg, sodium butyrate 1.2 g/kg
  histone H3K9 acetylation enrichment at promoter DNA (cFOS, BDNF promoter 4), ChIP: no concurrent changes
[1]; in vivo treatment
  acetylation of histone 3 at lysine 9 in Western blot: did not significantly alter
[2]
  acetylated (lysine 40) fraction of α-tubulin: increases
[3]
  number of marbles buried: significantly reduced
[4]; HDAC6 KO mice, identical treatment regimens
  α-tubulin acetylation over baseline levels: did not produce increases
[4]; wild-type mice, 24 h, 4 h, 30 m before sacrifice, compound 73 5 mg/kg, compound 101 50 mg/kg
  α-tubulin acetylation in cortex, hippocampus, DRN, cerebellum: significant increases
[5]
  latency to eat in the NIH test: significantly decreased
[6]
  α-tubulin acetylation in whole brain lysates: significant increases
[7]
  body weight gain: no significant effect
[8]; acute, compounds 73, 101 50 mg/kg, tubastatin A 10 mg/kg
  exploratory activity in novel open-field arena: hyperlocomotor effects
[8]; mouse, in vivo
  distance in the center of the open field: 602±96 beam breaks
[9]; C57BL/6J, intraperitoneal, read-out: AUCBrain/AUCplasma
  Kp: 1.22
[9]; C57BL/6J, plasma, intraperitoneal, 5 mg/kg, read-out: 30 min plasma concentration (ng/ml) - 5 mg/kg
  concentration at 30 min: 89 ng/mL
[9]; C57BL/6J, plasma, intraperitoneal, 50 mg/kg, read-out: 30 min plasma concentration (ng/ml) - 50 mg/kg
  concentration at 30 min: 515 ng/mL
[9]; C57BL/6J, plasma, ip, 5 mg/kg, mice, acute i.p. dosing, read-out: Cmax
  Cmax: 494 ng/mL
[9]; C57BL/6J, plasma, ip, mice, acute i.p. dosing, read-out: T½ plasma (converted)
  half-life: 12 min
[9]; intraperitoneal, read-out: AUCBrain/AUCplasma ratio
  Kp: > 1
[9]; plasma, intraperitoneal, acute 50 mg/kg injection, read-out: plasma level at t=30 minutes
  concentration at 30 min: 515 ng/mL and 1.9 µM
[9]; plasma, intraperitoneal, read-out: plasma concentration after two hours
  concentration at 2 h: < 10 ng/mL
[9]; plasma, intraperitoneal, read-out: plasmatic half-life
  half-life: 12 min
[10]; 20 days treatment, fluoxetine 20 mg/kg, compound 101 50 mg/kg
  time in the interaction zone versus vehicle, defeated mice: significantly higher
[10]; after CSD, fluoxetine 20 mg/kg, compound 101 50 mg/kg
  percentage of resilient mice: 81%
[10]; versus vehicle
  time spent in the corner zones: decrease
[11]
  change in histone H3K9 acetylation: no significant change
[12]; 5 mg/kg
  immobility in TST: No significant effect
[12]; 20 mg/kg citalopram, 50 mg/kg compound 73
  activity in TST two hours after the injection: still had significant activity
[12]; 50 mg/kg i.p., 30 minutes
  immobility in TST: Significant reductions
[12]; C57BL/6J background, versus WT littermates
  anti-immobility effect in HDAC6 KO mice: no significant effect
[12]; mouse, in vivo
  anti-immobility effects in C57BL/6J WT mice: still significant
[13]
  behavioral changes / time in the open arms of the maze: neither compound 73 nor compound 101 produced behavioral changes
